Reference: patent publication US20240246968A1, “SMALL MOLECULE INHIBITORS OF KRAS G12C MUTANT” (Merck Sharp & Dohme LLC, priority 2021, published 2024)
pIC50: −log10 of the molar value.

Columns and labels:
MIA PaCa-2 cells = assay: Growth inhibition activity on KRAS-G12C mutant cell line (MIA PaCa-2), CellTiter-Glo 3D; format: cell-based, human; details: MIA PaCa-2, 3-day culture with compound
In short: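 Luminescence readout (CellTiter-Glo 3D) after 3 days of compound treatment at 37 °C, 5% CO2, 0.2% final DMSO, gave % growth inhibition versus no-compound wells, from which IC50 (nM) was derived; cells had been plated in 10% FBS RPMI1640 one day before dosing.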

[1] = target: Gppcp-bound recombinant K-Ras4B G12C mutant protein (amino acids 1-169, C51S/C80L/C118S) (Homo sapiens, UniProt P01116, C118S/C51S/C80L/G12C); assay: KRASG12C binding assay (LC-MS, compound binding rate); details: test compound final concentration 0.5 μM, 25° C., 1 hour
In short: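 Covalent adduct formation measured by deconvoluted intact-mass LC-MS after 1 h at 25 °C with compound at 0.5 μM final and 50 nM Gppcp-loaded KRAS G12C (residues 1-169, C51S/C80L/C118S). Buffer: TBS, 0.1 mM TCEP, 0.25 mM MgCl2, 50 μM Gppcp. Binding % = one-molecule adduct/(unbound + all adducts), binned A ≥80, B 60–80, C 40–60, D 20–40, E <20.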

[2] = target: T1, interaction between recombinant K-Ras4B G12C mutant protein and cRAF RAS-binding domain (cRAF-RBD) (Homo sapiens, UniProt P01116, G12C); assay: Inhibitory activity on interaction between KRAS G12C and cRAF (Alpha technology); format: biochemical; details: GMPPNP-bound KRAS G12C incubated with compound at 25° C. for 1 hour, then cRAF-RBD; Alpha signal
T1 construct: made in house; host or cells: E. coli
In short: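 Alpha readout of cRAF-RBD (aa 50-132) binding to KRAS G12C (aa 1-169) after 1.5 h RT, following 1 h, 25° C compound preincubation with GMPPNP-bound protein (pH 7.5 Tris, 1 mM MgCl2, TCEP, Tween 20). IC50 fitted from titrations, with GDP-bound KRAS as 100% and DMSO as 0% inhibition.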

pIC50 (MIA PaCa-2 cells; Homo sapiens, MIA PaCa-2, 72 h)	pIC50 [2]	pIC50 (MIA PaCa-2 cells)	Structure (SMILES)	binding rate [1]
7.00	7.10	–	Cc1nc2cc(-c3cccn4c(C(=O)c5cc(F)c(NC(=O)/C=C/CNC(C)(C)C)c(F)c5)ccc34)c(C(F)(F)F)cc2n1C [Example 25, (E)-4-(tert-butylamino)-N-(4-(8-(1,2-dimethyl-6-(trifluoromethyl)-1H-benzo[d]imidazol-5-yl)indolizine-3-carbonyl)-2,6-difluorophenyl)but-2-enamide]	A (A binding rate of 80% or more is rated “A”)
6.96	7.21	–	Cc1nc2cc(-c3cccn4c(C(=O)c5cc(F)c(NC(=O)/C=C/CNC6CC7CCC(C6)O7)c(F)c5)ccc34)c(C(F)(F)F)cc2n1C (stereo not drawn) [Example 79, (E)-4-((8-oxabicyclo[3.2.1]octan-3-yl)amino)-N-(4-(8-(1,2-dimethyl-6-(trifluoromethyl)-1H-benzo[d]imidazol-5-yl)indolizine-3-carbonyl)-2,6-difluorophenyl)but-2-enamide]	A (A binding rate of 80% or more is rated “A”)
7.11	7.39	–	CO[C@H]1CC[C@H](NC/C=C/C(=O)Nc2c(F)cc(C(=O)c3cc(CC#N)c4c(-c5c(C)cc6c(nc(C)n6C)c5Cl)cccn34)cc2F)CC1 [Example 108, (E)-N-(4-(8-(4-chloro-1,2,6-trimethyl-1H-benzo[d]imidazol-5-yl)-1-(cyanomethyl)indolizine-3-carbonyl)-2,6-difluorophenyl)-4-(((1r,4r)-4-methoxycyclohexyl)amino)but-2-enamide]	A (A binding rate of 80% or more is rated “A”)
–	7.54	7.46	COc1cc2c(nc(C)n2C)c(Cl)c1-c1cccn2c(C(=O)c3cc(F)c(NC(=O)/C=C/CN[C@H]4CC[C@H](OC)CC4)c(F)c3)ccc12 (single isomer, unassigned) [Example 35-1, (E)-N-(4-(8-(4-chloro-6-methoxy-1,2-dimethyl-1H-benzo[d]imidazol-5-yl)indolizine-3-carbonyl)-2,6-difluorophenyl)-4-(((1r,4r)-4-methoxycyclohexyl)amino)but-2-enamide]	A (A binding rate of 80% or more is rated “A”)
–	5.72	5.64	COc1c(-c2cccn3c(C(=O)c4cc(F)c(NC(=O)/C=C/CNC5CCOCC5)c(F)c4)ccc23)c(C(F)(F)F)cc2c1nc(C)n2C (single isomer, unassigned) [Example 61-1, (E)-N-(2,6-difluoro-4-(8-(4-methoxy-1,2-dimethyl-6-(trifluoromethyl)-1H-benzo[d]imidazol-5-yl)indolizine-3-carbonyl)phenyl)-4-((tetrahydro-2H-pyran-4-yl)amino)but-2-enamide]	B (a binding rate of 60% or more and less than 80% is rated “B”)
6.64	7.47	–	CO[C@H]1CC[C@H](NC/C=C/C(=O)Nc2c(F)cc(C(=O)c3ccc4c(-c5c(C)cc6c(nc(COC(=O)/C=C/CN[C@H]7CC[C@H](OC)CC7)n6C)c5Cl)cccn34)cc2F)CC1 [Example 59, (4-chloro-5-(3-(3,5-difluoro-4-((E)-4-(((1r,4r)-4-methoxycyclohexyl)amino)but-2-enamido)benzoyl)indolizin-8-yl)-1,6-dimethyl-1H-benzo[d]imidazol-2-yl)methyl (E)-4-(((1r,4r)-4-methoxycyclohexyl)amino)but-2-enoate]	A (A binding rate of 80% or more is rated “A”)
7.66	7.40	–	COc1c(-c2cccn3c(C(=O)c4cc(F)c(NC(=O)/C=C/CNC(C)(C)C)c(F)c4)ccc23)c(C(F)(F)F)cc2c1nc(C)n2C [Example 53, (E)-4-(tert-butylamino)-N-(2,6-difluoro-4-(8-(4-methoxy-1,2-dimethyl-6-(trifluoromethyl)-1H-benzo[d]imidazol-5-yl)indolizine-3-carbonyl)phenyl)but-2-enamide]	A (A binding rate of 80% or more is rated “A”)
–	7.76	6.72	C=Cc1cc(C(=O)c2cc(F)c(NC(=O)/C=C/CNC3(C)CC3)c(F)c2)n2cccc(-c3c(OC)cc4c(nc(C)n4C)c3F)c12 (single isomer, unassigned) [Example 111-2, (E)-N-(2,6-difluoro-4-(8-(4-fluoro-6-methoxy-1,2-dimethyl-1H-benzo[d]imidazol-5-yl)-1-vinylindolizine-3-carbonyl)phenyl)-44-((1-methylcyclopropyl)amino)but-2-enamide]	A (A binding rate of 80% or more is rated “A”)
6.72	7.12	–	Cc1nc2c(-c3cc4nc(C)n(C)c4cc3C(F)(F)F)cccn2c1C(=O)c1cc(F)c(NC(=O)/C=C/CNC(C)(C)C)c(F)c1 [Example 52, (E)-4-(tert-butylamino)-N-(4-(8-(1,2-dimethyl-6-(trifluoromethyl)-1H-benzo[d]imidazol-5-yl)-2-methylimidazo[1,2-a]pyridine-3-carbonyl)-2,6-difluorophenyl)but-2-enamide]	A (A binding rate of 80% or more is rated “A”)
–	6.89	6.44	COc1cc(N2CCCC2=O)cc(Cl)c1-c1cccn2c(C(=O)c3cc(F)c(NC(=O)/C=C/CN[C@H]4CC[C@H](OC)CC4)c(F)c3)ccc12 (single isomer, unassigned) [Example 30-1, (E)-N-(4-(8-(2-chloro-6-methoxy-4-(2-oxopyrrolidin-1-yl)phenyl)indolizine-3-carbonyl)-2,6-difluorophenyl)-4-(((1r,4r)-4-methoxycyclohexyl)amino)but-2-enamide]	A (A binding rate of 80% or more is rated “A”)
6.49	7.36	–	CCCc1cc(C(=O)c2cc(F)c(NC(=O)/C=C/CN[C@H]3CC[C@H](OC)CC3)c(F)c2)n2cccc(-c3c(C)cc4c(nc(C)n4C)c3Cl)c12 [Example 97, (E)-N-(4-(8-(4-chloro-1,2,6-trimethyl-1H-benzo[d]imidazol-5-yl)-1-propylindolizine-3-carbonyl)-2,6-difluorophenyl)-4-(((1r,4r)-4-methoxycyclohexyl)amino)but-2-enamide]	A (A binding rate of 80% or more is rated “A”)
6.60	6.34	–	CO[C@H]1CC[C@H](NC/C=C/C(=O)Nc2c(F)cc(C(=O)c3ccc4c(-c5cc6nc(C)n(C)c6cc5C(F)(F)F)nccn34)cc2F)CC1 [Example 115, (E)-N-(4-(1-(1,2-dimethyl-6-(trifluoromethyl)-1H-benzo[d]imidazol-5-yl)pyrrolo[1,2-a]pyrazine-6-carbonyl)-2,6-difluorophenyl)-4-(((1r,4r)-4-methoxycyclohexyl)amino)but-2-enamide]	B (a binding rate of 60% or more and less than 80% is rated “B”)
–	6.60	6.66	CO[C@H](C)c1nc2c(Cl)c(-c3cccn4c(C(=O)c5cc(F)c(NC(=O)/C=C/CNC(C)(C)C)c(F)c5)ccc34)c(C)cc2n1C (single isomer, unassigned) [Example 50]	A (A binding rate of 80% or more is rated “A”)
7.03	7.27	–	CO[C@H]1CC[C@H](NC/C=C/C(=O)Nc2c(F)cc(C(=O)c3cc(-c4cnn(C)c4)c4c(-c5c(C)cc6c(nc(C)n6C)c5Cl)cccn34)cc2F)CC1 [Example 101, (E)-N-(4-(8-(4-chloro-1,2,6-trimethyl-1H-benzo[d]imidazol-5-yl)-1-(1-methyl-1H-pyrazol-4-yl)indolizine-3-carbonyl)-2,6-difluorophenyl)-4-(((1r,4r)-4-methoxycyclohexyl)amino)but-2-enamide]	A (A binding rate of 80% or more is rated “A”)
7.49	7.32	–	CCc1cc2c(nc(C)n2C)c(Cl)c1-c1cccn2c(C(=O)c3cc(F)c(NC(=O)/C=C/CNC4CCOCC4)c(F)c3)ccc12 [Example 17, (E)-N-(4-(8(4-chloro-6-ethyl-1,2-dimethyl-1H-benzo[d]imidazol-5-yl)indolizine-3-carbonyl)-2,6-difluorophenyl)-4-((tetrahydro-2H-pyran-4-yl)amino)but-2-enamide]	A (A binding rate of 80% or more is rated “A”)
6.59	7.02	–	Cc1cc2c(nc(CC(F)(F)F)n2C)c(Cl)c1-c1cccn2c(C(=O)c3cc(F)c(NC(=O)/C=C/CNC(C)(C)C)c(F)c3)ccc12 [Example 82, (E)-4-(tert-butylamino)-N-(4-(8-(4-chloro-1,6-dimethyl-2-(2,2,2-trifluoroethyl)-1H-benzo[d]imidazol-5-yl)indolizine-3-carbonyl)-2,6-difluorophenyl)but-2-enamide]	A (A binding rate of 80% or more is rated “A”)
